Values after ≈ are worked out from the molar mass of the structure shown. Marks after values point to notes of the source that are not given here. Where a SMILES comes first, the peptide text is derived from it. Where no end group is shown, it is not given here. [ ]: non-standard residue; d: D form. The star is where a group is joined. Benzoyl(4-Ph) = O=C(c1ccc(-c2ccccc2)cc1)*; Benzoyl(2-Ph) = O=C(c1ccccc1-c1ccccc1)*; d1Nal = N[C@H](Cc1cccc2ccccc12)C(=O)O; Aib = CC(C)(N)C(=O)O
Tests used:
[1] = tested on: Factor Xa neutralization by ATIII/heparin complexes; test: Chromostrate heparin anti-Factor Xa assay (heparin neutralization); type: biochemical; conditions: absorbance at 405 nm
Protocol: A Chromostrate™ assay was used to determine the effect of peptide-based constructs, including derivatized constructs, and the effect protamine sulfate (as a positive control) on Factor Xa neutralization by ATIII/heparin complexes. The assay was conducted using a Chromostrate™ heparin anti-Factor Xa assay kit (Organon Teknika Corp., Durham, N.C.). Heparin concentration was varied so that a heparin standard curve was generated. The assay measured the potentiating effect of heparin on anti-Xa activity in vitro. Solution containing heparin is incubated in the presence of ATIII with an excess of Factor Xa, forming an ATIII-Heparin-Xa complex. The remaining Xa catalyzes the release of p-nitroaniline (pNA) from the chromogenic substrate. The release of p-nitroaniline is measured at 405 nm. The absorbance obtained in inversely porportional to the concentration of heparin in the sample.
Reagents for the assay are prepared as follows. Heparin, peptide-based constructs and protamine sulfate stocks are made in saline. Stock solutions are approximately 1 mg/mL=1 μg/μL. Factor Xa reagent and substrate reagent are reconstituted with 2.0 mL purified water. Antithrombin III (ATIII) reagent is reconstituted with 1.0 mL purified water. The assay is performed in 96 well microtiter plates. Assay components are added to the microtiter wells as follows: 12.5 μl of heparin (from 0 to 10 U/mL), 25 μl of construct or protamine sulfate, 12.5 μL of ATIII (0.5 PEU/mL), 25 μL of bovine Factor Xa (14 nKat/mL), 25 μL substrate (3 μmoles/mL). The reaction is allowed to proceed for 20 minutes and then 25 μL of 0.1 M acetic acid is added. The color reaction is quantitated on a microplate reader at 405 nm. Constructs that neutralize heparin show an increase in the absorbance at 405 nm. Protamine is used as a positive control and its activity is designated as 100%. The percent (%) heparin neutralization for each peptide construct is calculated relative to the neutralization by protamine (100%), and shown in Table IV.

[2] = tested on: E. coli (J5 and 0111 B4), Staphylococcus aureus and Candida albicans; test: Broth and/or radial diffusion antimicrobial assays; type: cell-based
From the text: Assays useful for testing a variety of biological activities of BPI protein products, including BPI-derived peptides, are described in co-owned U.S. Pat. Nos. 5,733,872; 5,763,567; 5,652,332; and 5,856,438 and corresponding PCT Publication Nos. WO 94/20532 (PCT/US94/02465) and WO 95/19372 (PCT/US94/10427) and U.S. Pat. No. 5,858,974 and corresponding PCT Publications Nos. WO 96/08509 (PCT/US95/09262) and WO 97/04008 (PCT/US96/03845), incorporated herein by reference. These activities include antimicrobial (including antibacterial and antifungal), LPS binding, LPS neutralization and additional assays of heparin binding as well as heparin neutralization.

[3] = tested on: LPS; test: RAW cell assay of LPS neutralization; type: cell-based
[4] = tested on: human umbilical vein endothelial cells (HUVEC); type: cell-based; conditions: 72 h
Protocol: Briefly, human umbilical vein endothelial cells (HUVEC) were cultured in EGM-2 medium (Clonetics Corp., San Diego, Calif.), harvested and plated onto a 96-well culture plate. After 24 hours of quiescence, the cells were co-cultured with various peptide-based constricts in the presence of growth factors for 72 hours to test their activity. Cell proliferation was quantitated by tritiated thymidine incorporation into DNA and was expressed in counts per minute (cpm).
Details of the experimental procedures were as follows: HUVEC cells were cultured in EGM-2 media from Clonetics Corp., a subsidiary of BioWhittaker, Inc., San Diego, Calif. [EGM-2 is Endothelial Cell Basal Medium-2 (EMB-2) supplemented with growth factors (hFGF-B, VEGF, IGF-1, hEGF) ascorbic acid, heparin, GA-1000 and 2% FBS), in T75 flasks until confluent (˜4-7 days). Cells were harvested by trypsinizing the cells using 0.025% trypsin/EDTA for 5 minutes. To stop the reaction, 2-5% FBS was added. The cells were centrifuged and washed 3 times using Hank's Balanced Salt Solution (HBSS) or Dulbecco's Phosphate Buffered Saline D-PBS. The pellet was then resuspended in EBM-2 supplemented with 0.1% FBS and GA-1000 was used. The cells were counted and a cell suspension was prepared at 2×10^5/mL in EBM-2 with 0.1% FBS; cells were dispensed into a 96-well flat bottomed culture plate at 0.1 mL/well (total: ˜20,000 cells/well in 0.1% FBS-EBM-2). Incubation continued at 37° C. in 5% CO2 for 20-24 hours. The next day peptide-based constructs were prepared for testing in a 96 well plate. The supernatant was aspirated from the cell-well, replaced with EBM-2 or the testing reagent at 20 μL/well. Then, 180 μL/well of 1.12% FBS-GFS were added to make a final concentration of 1% FBS-GFS in EBM-2. This aspiration and addition was done well-by-well. ^3H-thymidine (100 μCi/mL) was added at 10 μL/well (1 μCi/well, final). Incubation continued at 37° C., 5% CO2 for 72 hours. To harvest the plate, the supernatant was aspirated off from the cell-well and then 75 μL-100 μL/well of 0.025% trypsin-EDTA was added. After incubation for 8-10 minutes at room temperature in the hood, the cells were checked and 100 μL/well of 2-5% FBS-PBS was added to stop the reaction. The plate was then harvested, dried and counted using an Inotech cell harvester (Inotech Biosystems, INB-384, Sample Processing and Filter Counting System, Lansing, Mich.).

Compound | Assay A: percent heparin neutralization relative to protamine (100%) [1] | Assay B: percent heparin neutralization relative to protamine (100%) [1] [%] | antimicrobial activity [2] | LPS neutralization activity [3] | IC50 [4] [µg/mL]
4-biphenylcarbonyl-k-l-f-r-(naph-a)-q-a-k ({Benzoyl(4-Ph)}-[dK][dL][dF][dR][dNal][dQ][dA][dK]; not fully specified; printed as 4-biphenylcarbonyl-k-l-f-r-(naph-a)-q-a-k) [XMP.664] | 50% | 16 | highest activities |  | 
4-biphenylcarbonyl-k-l-f-r-(biphenyl-a)-q-a-k [XMP.768] | 34% | 10 |  |  | 
CC[C@@H](C)[C@@H](NC(=O)[C@@H](CO)NC(=O)CNC(=O)[C@@H](CCCCN)NC(=O)[C@@H](Cc1cccc2ccccc12)NC(=O)[C@@H](CCCCN)NC(=O)[C@@H](C)NC(=O)[C@@H](CCC(N)=O)NC(=O)[C@@H](Cc1cccc2ccccc12)NC(=O)[C@@H](CCCNC(=N)N)NC(=O)[C@@H](Cc1ccccc1)NC(=O)[C@@H](CC(C)C)NC(=O)[C@H](N)CCCCN)C(N)=O [XMP.625, k-l-f-r-(naph-a)-q-a-k-(naph-a)-k-g-s-i] (H-[dK][dL][dF][dR][d1Nal][dQ][dA][dK][d1Nal][dK]G[dS][dI]-NH2) | 79% | 125 |  | showed activity | 
k-l-f-k-(biphenyl-a)-q-a-k-(biphenyl-a)-k-G [XMP.728] | 106% | 87 |  |  | 
k-a-f-r-(naph-a)-q-a-k-(naph-a) ([dK][dA][dF][dR][dNal][dQ][dA][dK][dNal]; not fully specified; printed as k-a-f-r-(naph-a)-q-a-k-(naph-a)) [XMP.760] | 53% | 44 | highest antimicrobial activities |  | 
4-biphenylcarbonyl-k-l-f-k-(naph-a)-q-a-k ({Benzoyl(4-Ph)}-[dK][dL][dF][dK][dNal][dQ][dA][dK]; not fully specified; printed as 4-biphenylcarbonyl-k-l-f-k-(naph-a)-q-a-k) [XMP.767] | 63%* | 58 | highest activities |  | 
k-l-f-k-(naph-a)-q-a-k-(naph-a) ([dK][dL][dF][dK][dNal][dQ][dA][dK][dNal]; not fully specified; printed as k-l-f-k-(naph-a)-q-a-k-(naph-a)) [XMP.776] | 74% | 75 | highest antimicrobial activities |  | 
k-l-f-r-(biphenyl-A)-q-a-k [XMP.685] | 3.4% | 0.2 |  |  | 
k-l-f-r-(biphenyl-a)-q-a-k [XMP.725] | 3.8% | 1.0 |  |  | 
4-biphenylcarbonyl-k-l-f-k-(biphenyl-a)-q-a-k [XMP.769] | 64% | 46 |  |  | 
CC[C@@H](C)[C@@H](NC(=O)[C@@H](CCCCN)NC(=O)[C@H](NC(=O)CNC(=O)[C@@H](CCCCN)NC(=O)[C@@H](Cc1cccc2ccccc12)NC(=O)[C@@H](CCCCN)NC(=O)[C@@H](C)NC(=O)[C@@H](CCC(N)=O)NC(=O)[C@@H](Cc1cccc2ccccc12)NC(=O)[C@@H](CCCNC(=N)N)NC(=O)[C@@H](Cc1ccccc1)NC(=O)[C@@H](CC(C)C)NC(=O)[C@H](N)CCCCN)[C@H](C)CC)C(N)=O [XMP.656, k-l-f-r-(naph-a)-q-a-k-(naph-a)-k-g-i-k-i] (H-[dK][dL][dF][dR][d1Nal][dQ][dA][dK][d1Nal][dK]G[dI][dK][dI]-NH2; N-terminus assumed) | 74% | 65 | highest antimicrobial activities |  | 2.6 ± 0.8 (≈ 1.43 µM)
k-a-f-k-(naph-a)-q-a-k-(naph-a)-k-G ([dK][dA][dF][dK][dNal][dQ][dA][dK][dNal][dK]G; not fully specified; printed as k-a-f-k-(naph-a)-q-a-k-(naph-a)-k-G) [XMP.764] | 75% | 60 | highest antimicrobial activities |  | 
CC(C)C[C@@H](NC(=O)[C@@H](CCCCN)NC(=O)c1ccccc1-c1ccccc1)C(=O)N[C@H](Cc1ccccc1)C(=O)N[C@H](CCCNC(=N)N)C(=O)N[C@H](Cc1cccc2ccccc12)C(=O)N[C@H](CCC(N)=O)C(=O)N[C@H](C)C(=O)N[C@H](CCCCN)C(N)=O [XMP.661, 2-biphenylcarbonyl-k-l-f-r-(naph-a)-q-a-k] ({Benzoyl(2-Ph)}-[dK][dL][dF][dR][d1Nal][dQ][dA][dK]-NH2) | 30% | 9 |  |  | 
1-naphthylacetyl-k-l-f-r-(naph-a)-q-a-k ({1‑naphthylacetyl}-[dK][dL][dF][dR][dNal][dQ][dA][dK]; not fully specified; printed as 1-naphthylacetyl-k-l-f-r-(naph-a)-q-a-k) [XMP.671] | 32% | 15 |  |  | 
k-(aminoisobutyric acid)-f-r-(naph-a)-q-a-k-(naph-a) ([dK][Aib][dF][dR]A[dQ][dA][dK]A; not fully specified (residues 5, 9)) [XMP.778] | 54% | 49 | highest antimicrobial activities |  | 

Reference: patent US20060148714A1, “Therapeutic peptide-based constructs” (priority 1999, published 2006)
